{"source": "patent US9700048B2", "about": "“Agroformulation comprising copolymer of vinyllactam, N-alkyl acrylamide, and alkyl (meth)acrylate” (BASF SE, priority 2012, dated 2017)", "origin": "cited, not measured here", "details": "at 20° C."}
{"compound": "Cn1cc(C(=O)Nc2ccccc2-c2cc(F)c(F)c(F)c2)c(C(F)F)n1", "note": "[fluxapyroxad]", "values": [{"measurement": "solubility in water", "result": 3.88, "unit": "µg/mL"}]}
